Measured values from US20100004159A1, “SUBSTITUTED IMIDAZOLONE DERIVATIVES, PREPARATIONS AND USES” (GENFIT, priority 2006, published 2010).

Key:
PPARs target genes = experiment: Expression of PPAR target genes by quantitative RT-PCR in db/db mouse tissue; format: in vivo; conditions: db/db mice, 50 mpk for 28 days
Protocol: Samples of hepatic tissue and adipose epididymal tissue were taken and frozen immediately in liquid nitrogen then conserved at −80° C. for later analysis.
Total RNA was extracted from liver fragments by using a NucleoSpine 96 RNA kit (Macherey Nagel, Hoerdt, France) according to the manufacturer's instructions.
The total RNA of the adipose tissue was extracted from tissue fragments with a method using guanidine thiocyanate. The tissues were briefly homogenized in 5 mL of a lysis buffer (guanidine thiocyanate 4M, EDTA pH8 10 mM, Tris HCl pH 7.5 50 mM and b-mercaptoethanol 1.4%) using polytron. To separate the layers, 500 μL of sodium acetate 2M pH4, 5 mL of phenol, and 2 mL of a mixture of chloroform/isoamylic alcohol (49:1) were added. After centrifugation, the aqueous layer was collected and the RNA was precipitated in the presence of isopropanol. After a second precipitation, the RNA was washed with ethanol 70°, dried, then suspended again in an volume of water free of RNase. A step of purification/DNase I treatment of the RNA was then carried out by using NucleoSpin® 96 RNA kit (Macherey-Nagel) according to the manufacturer's instructions. 1 μg of total RNA (quantified by using the Ribogreen RNA quantification kit (Molecular Probes)) was then reverse-transcribed into cDNA by means of a 1 hour reaction at 37° C. in a total volume of 20 μl containing a buffer 1× (Sigma), 1.5 mM of DTT, 0.18 mM, of dNTPs (Promega), 200 ng of pdN6 (Amersham), 30 U of RNase inhibitor (Sigma), and 1 μl of MMLV-RT (Sigma). The quantitative PCR experiments were carried out using the MyiQ Single-Color Real-Time PCR Detection System (Biorad, Marnes-la-Coquette, France) and were performed using the iQ SYBR Green Supermix kit according to the manufacturer's recommendations, in 96-well plates in 5 μl of a diluted reverse transcription solution at a hybridization temperature of 55° C. Primer pairs specific to the studied genes were used:
The quantity of emitted fluorescence is directly proportional to the quantity of cDNA present at the beginning of the reaction and amplified during the PCR. For each target studied, a range of solutions is performed with successive dilutions of a mixture made up of a few μl of different reverse-transcription solutions. The relative levels of expression of each target are thus determined by using efficiency curves obtained with the points relative to the range.
The expression levels of the genes of interest were then normalized, in the hepatic tissue with respect to the level expression of reference gene 36B4 (whose specific primers are: sense primer: 5′-[…]-3′ (SEQ ID NO: 15) and antisense primer: 5′-[…]-3′ (SEQ ID NO: 16)), and in the adipose tissue with respect to reference gene 18S (whose specific primers are: sense primer: 5′-[…]-3′ (SEQ ID NO: 17) and antisense primer: 5′-[…]-3′ (SEQ ID NO: 18)). The induction factor was then calculated for each sample. The higher the induction factor is, the more the compound promotes gene expression. The final result is represented as the average of the induction values within each experimental group.

hPPARα = target: T1, hPPARα (Homo sapiens, UniProt Q07869); experiment: Gal4-hPPARα transactivation in COS-7 cells (luciferase); format: cell-based; conditions: COS-7 cells transfected pGal4-hPPAR, 0.01 to 100 μM
T1 construct: DNA fragments amplified by PCR and corresponding to the DEF domains of human PPARα, PPARγ, and PPARδ nuclear receptors; expressed in transfected cells; host or cells: COS-7
T1 sequence (Q07869 239-466 limits assumed): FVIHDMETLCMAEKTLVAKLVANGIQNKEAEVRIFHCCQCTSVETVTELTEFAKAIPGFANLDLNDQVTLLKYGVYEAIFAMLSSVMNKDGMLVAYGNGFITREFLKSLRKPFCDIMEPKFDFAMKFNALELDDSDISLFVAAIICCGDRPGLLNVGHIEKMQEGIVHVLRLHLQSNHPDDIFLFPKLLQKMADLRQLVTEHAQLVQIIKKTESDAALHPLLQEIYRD
Protocol: (§1) The activation of PPARs was evaluated in vitro using a monkey kidney fibroblast line (COS-7) by measuring the transcriptional activity of chimeras made up of the DNA binding domain of the Gal4 transcription factor of yeast and of the binding domain to the ligand of the different PPARs. The compounds were tested at doses of between 0.01 and 100 μM on Gal4-PPARα, γ, and δ chimeras.
(§2) COS-7 cells came from ATCC (American type culture collection) and were cultivated in a DMEM medium supplemented with 10% (vol/vol) of fetal calf serum, 100 U/ml of penicillin (Gibco, Paisley, UK) and 2 mM of L-Glutamine (Gibco, Paisley, UK). The cells were incubated at 37° C. under humid atmosphere containing 5% CO2.
(§3) The plasmids Gal4(RE)_TkpGL3, pGal4-hPPARα, pGal4-hPPARγ, pGal4-hPPARδ and pGal4-φ have been described in the literature (Raspe E et al., 1999). The constructions pGal4-hPPARα, pGal4-hPPARγ, and pGal4-hPPARδ were obtained by cloning, in the pGal4-φ vector, DNA fragments amplified by PCR and corresponding to the DEF domains of human PPARα, PPARγ, and PPARδ nuclear receptors.
(§4) The COS-7 cells in suspension were transfected with 150 ng of DNA per well, with a pGal4-PPAR/Gal4(RE)_TkpGL3 ratio of 1/10, in presence of 10% fetal calf serum. The cells were then plated in 96-well plates (4×10^4 cells/well), then incubated for 24 hours at 37° C. Activation with the test compounds was performed for 24 hours at 37° C. in a medium without serum. At the end of the experiment, the cells were lysed and the luciferase activity was determined using the Steady-Lite™ HTS (Perkin Elmert) or the Steady Glow Luciferase kit (Promega), in accordance with the provider's recommendations.
(§5) The compounds according to the invention were tested at doses between 0,01 and 100 μM on the 3 PPAR isoforms. The results obtained are presented in detail under FIG. 1a.

hPPARγ = target: T2, hPPARγ (Homo sapiens, UniProt P37231); experiment: Gal4-hPPARγ transactivation in COS-7 cells (luciferase); format: cell-based; conditions: COS-7 cells transfected pGal4-hPPAR, 0.01 to 100 μM
T2 construct: DNA fragments amplified by PCR and corresponding to the DEF domains of human PPARα, PPARγ, and PPARδ nuclear receptors; expressed in transfected cells; host or cells: COS-7
T2 sequence (P37231 238-503 limits assumed): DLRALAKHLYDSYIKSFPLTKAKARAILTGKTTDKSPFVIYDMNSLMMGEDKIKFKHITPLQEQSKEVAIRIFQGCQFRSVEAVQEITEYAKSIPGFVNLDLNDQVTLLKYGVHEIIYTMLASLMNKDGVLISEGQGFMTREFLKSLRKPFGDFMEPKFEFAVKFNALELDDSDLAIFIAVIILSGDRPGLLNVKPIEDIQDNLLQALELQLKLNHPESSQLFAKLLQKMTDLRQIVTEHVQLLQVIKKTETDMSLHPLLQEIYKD
Protocol: as §1, §2, §3, §4, §5

[1] = target: T3, angiotensin II AT1 receptor (Oryctolagus cuniculus, UniProt P34976); experiment: Ex vivo agonist/antagonist activity on isolated rabbit thoracic aorta rings; conditions: 0.3, 3 and 30 μM; for agonist activity (contraction): non-treated rabbit thoracic aorta; for antagonist activity (inhibition of contractile response to angiotensin II): rabbit thoracic aorta previously exposed to angiotensin II 0.003 μM
T3 construct: tissue CEREP; host or cells: rabbit thoracic aorta rings
T3 sequence (P34976 1-359): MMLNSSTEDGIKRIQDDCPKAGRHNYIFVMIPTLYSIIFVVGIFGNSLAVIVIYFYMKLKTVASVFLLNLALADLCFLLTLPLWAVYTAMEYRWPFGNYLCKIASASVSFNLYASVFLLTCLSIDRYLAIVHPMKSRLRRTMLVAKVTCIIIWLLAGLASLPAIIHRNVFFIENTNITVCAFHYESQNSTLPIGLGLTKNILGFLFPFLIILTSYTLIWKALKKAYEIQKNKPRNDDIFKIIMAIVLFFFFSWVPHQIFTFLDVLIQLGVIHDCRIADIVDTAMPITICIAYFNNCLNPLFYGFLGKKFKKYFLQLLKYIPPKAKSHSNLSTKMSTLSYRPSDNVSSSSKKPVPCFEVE
Protocol: This activity is either agonist or antagonist and was evaluated ex vivo on isolated organs. Agonist activity corresponds to tissue contraction. Antagonist activity corresponds to tissue dilatation.
The ex vivo test was performed at the CEREP (Celle L'Evescault, France (86)) following a protocol based on Pendleton et al. (Pendleton R G et al.,1989). Rabbit thoracic aorta rings with intact endothelium were suspended in baths for organs containing an oxygenated physiologic saline solution (95% O2 and 5% CO2) and preheated (37° C.) having the following composition (mM): NaCl 118.0, KCl 4.7, MgSO4 1.2, CaCl2 2.5, KH2PO4 1.2, NaHCO3 25.0, and glucose 11.0 (pH 7.4).
Benextramine (1 μM), propranolol (1 μM), pyrilamine (1 μM), atropine (1 μM), methysergide (1 μM), and captopril (0.1 μM) were also used in all carried out experiments to block respectively α-adrenergic, β-adrenergic, histaminic H1 muscarinic, and 5-HT2 receptors as well as to prevent peptide degradation. The tissues were bound to a force sensor suitable for isometric tension recording. They were stretched to a resting tension of 4 g, then stabilized for 60 minutes. During the stabilization, they were washed several times and the tension was adjusted. The experiments were carried out using semi-automatic systems of isolated organs with eight organ baths and multichannel data acquisition.
The tissues were exposed to a submaximal concentration of the reference agonist (angiotensin II at 0.003 μM) to verify the response and obtain a control contractile response.
After several washing operations and after having recovered the basal tone, the tissues were exposed to increasing concentrations of compounds according to the invention or the same agonist. The different concentrations were added cumulatively, each one was left in contact with the tissues until a stable response was reached and for a maximum of 30 minutes. If an agonist type response (contraction) was registered, the reference antagonist (Saralasine at 0.01 μM) was tested regarding the highest concentration of the compounds according to the invention to confirm the involvement of the AT1 receptors in the response.
After stabilization of the contraction induced by angiotensin II, increasing concentrations of compounds according to the invention or of the reference antagonist (Saralasine) were added cumulatively. Each concentration was left in contact with the tissues until a stable response was observed and for a maximum of 30 minutes.
The inhibiting effect of the compounds according to the invention on the contraction induced by the angiotensin 11 indicates antagonist activity on AT1 receptors.

melting point | activation of hPPARα (luciferase activity) (hPPARα) | activation of hPPARγ (luciferase activity) (hPPARγ) | agonist activity (contraction) [1] | Structure (SMILES) | hepatic expression of the gene coding for CPT1 b (PPARs target genes) | hepatic expression of the gene coding for PDK-4 (PPARs target genes) | expression of the gene coding for ApoCIII (PPARs target genes; liver) | expression of the gene coding for FBb (PPARs target genes; liver) | antagonist activity (inhibition of contractile response to angiotensin II) [1]
180 °C |  |  |  | CCCCC1=NC2(CCCC2)C(=O)N1Cc1ccc(-c2ccc(OC(C)(C)C(=O)O)cc2)cc1 [Compound 2, 2-butyl-1-[(4′-((1-carboxy-1,1-dimethylmethyl)oxy)biphenyl-4-yl)methyl]-4-spirocyclopentyl-1H-imidazol-5(4H)-one] | significant increase | significant increase | significant decrease | significant decrease | 
75 to 77 °C | activates only hPPARα | activates only hPPARα |  | CCCCC1=NC2(CCCCC2)C(=O)N1Cc1ccc(-c2ccc(OC(C)(C)C(=O)O)cc2)cc1 [Compound 25, 2-butyl-1-[(4′-((1-carboxy-1,1-dimethylmethyl)oxy)biphenyl-4-yl)methyl]-4-spirocyclohexyl-1H-imidazol-5(4H)-one] |  |  |  |  | 
85 °C |  |  | do not induce contraction | CCCCC1=NC2(CCCCC2)C(=O)N1Cc1ccc(-c2cccc(OC(C)C(=O)O)c2)cc1 (centres unmarked) [Compound 53] |  |  |  |  | inhibiting effect of the contractile response of the reference agonist
143 °C |  |  | do not induce contraction | CCCCC1=NC2(CCCC2)C(=O)N1Cc1ccc(-c2cc(OC(C)(C)C(=O)O)ccc2CC)cc1 [Compound 80, 2-butyl-1-[(3′-((1-carboxy-1,1-dimethylmethyl)oxy)-6′-ethyl-biphenyl-4-yl)methyl]-4-spirocyclopentyl-1H-imidazol-5(4H)-one] |  |  |  |  | inhibiting effect of the contractile response of the reference agonist
